Experimental data published in patent EP0946548B1, “NOVEL HETEROCYCLIC SUBSTITUTED PYRROLIDINE AMIDE DERIVATIVES” (Aventis Pharmaceuticals Inc., priority 1996, dated 1998).
Where a name gives a salt, the structure may show the parent alone.

Experiments:
NK1 receptor = target: T1, NK1 receptor (Cavia porcellus, UniProt P30547); experiment: Antagonism of iodinated tachykinin binding to NK1 receptor (125I-Bolton Hunter Lys-3 labeled substance P); conditions: guinea pig lung membranes; mean of several experiments
T1 construct: evaluated in guinea pig lungs (Keystone Biologicals, Cleveland, OH); tissue Keystone Biologicals, Cleveland, OH; host or cells: guinea pig lung membranes
T1 sequence (P30547 whole entry): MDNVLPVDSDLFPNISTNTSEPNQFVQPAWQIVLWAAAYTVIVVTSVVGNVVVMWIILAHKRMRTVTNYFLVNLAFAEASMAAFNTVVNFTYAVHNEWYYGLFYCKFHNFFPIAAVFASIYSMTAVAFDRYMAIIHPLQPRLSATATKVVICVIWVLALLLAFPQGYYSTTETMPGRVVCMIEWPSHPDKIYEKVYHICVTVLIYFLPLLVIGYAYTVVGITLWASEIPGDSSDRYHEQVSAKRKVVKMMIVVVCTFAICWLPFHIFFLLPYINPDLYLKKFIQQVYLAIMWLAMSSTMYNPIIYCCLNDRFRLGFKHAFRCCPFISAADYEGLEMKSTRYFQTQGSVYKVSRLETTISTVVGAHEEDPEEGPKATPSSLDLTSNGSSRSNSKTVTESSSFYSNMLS
Method: (§1) One skilled in the art can determine the NK1 receptor and NK2 receptor affinity in vitro as follows. The NK1 receptor affinity of tachykinin antagonists is evaluated in guinea pig lungs (Keystone Biologicals, Cleveland, OH) and affinity for the NK2 receptor is evaluated in HSKR-1 cells (which are mouse 3T3 fibroblasts expressing the human jejunal NK2 receptor). Tissues or cells are homogenized with a Polytron in 15 volumes of 50 mM Tris-HCl buffer (pH 7.4, 4°C) and centrifuged. The pellet is resuspended in Tris-HCl buffer and is centrifuged; the pellet is washed twice by resuspension. The final pellet is resuspended at a concentration of 40 mg/ml for tissues and 20 mg/ml for cells in incubation buffer and remains at room temperature for at least 15 min prior to use. Receptor binding is initiated by addition of 250 ul membrane preparation in duplicate to 0.1 nM of the following radioligands: ^125I-Bolton Hunter Lys-3 labeled substance P and ^125iodohistidyl-1-neurokinin A; in a final volume of 500 ul of buffer containing 50 mM Tris-HCl (pH 7.4 at room temperature), 0.1% bovine serum albumin, 2 mM mangenese chloride, 40 ug/ml bacitracin, 4 µg/ml leupeptin and chymostatin, 10 µM thiorphan and various doses of the putative tachykinin antagonists. […] Filter bound radioactivity is quantitated in a gamma counter. Nonspecific binding is defined as binding in the presence of 1 µM substance P or neurokinin A. Specific binding is calculated by subtracting nonspecific binding from total binding. Competition of iodinated SP or NKA binding by test compounds or standards is expressed as a percentage of this maximum binding. […]
(§2) Tachykinin receptor binding (IC50 values) for representative compounds of the present invention are found in Table 1. Specifically, NK1 and NK2 receptor binding values were determined by the method of present Example A. These values represent the mean of several experiments. […]

[1] = Metabolic stability: disappearance of test compound in human liver S9 supernatant; type: in vitro ADME; conditions: initial concentration 10µM, 37°C
Method: (§3) One skilled in the art can determine the metabolic stability for the compounds of the present invention by determining the rate of disappearance of the test comopund in vitro in liver extracts. Metabolic stability is inversely related to the rate of metabolism which can be evaluated by determining the rate of disappearance of the test compounds during the initial linear phase of this assay.
(§4) This method is carried out using either S9 or S10 liver supernatant obtained from either guinea pig or human liver. Guinea pig liver S9 can be purchased from Vitro Technologies, Baltimore, Md and human liver S9 can be purchased from IIAM, Eaton Pa. Both guinea pig and human S10 supernatant can be prepared as follows: Combine weighed liver (fresh or stored at -80°C until use) and 1.15% aqueous potassium chloride solution (10-15 mL) and homogenize using a PCU Poltron from Kinematics of Switzerland or equivalent. Combine the homogenate with 1.15% aqueous potassium chloride solution, sufficient so that 3 mL of solution (total) is used per […] of liver, and mix. Store the above homogenate on ice at all times prior to use and at -80°C for long term storage.
(§5) Prepare a stock solution of each test compound in methanol, such that 0.1 mL of the stock solution when spiked into 16 mL of incubation mixture yields an initial concentration of 10µM of the test compound. Using this method the methanol content of the final incubation mixture will not exceed 1%.
(§6) Prepare the incubation mixture by combining in an incubation beaker S9 or S10 supernatant (4 mL); an aqueous solution containing 1.1 mM NADP, […] (4 units/2 mL)(0.32 mL); and an aqueous 0.1 M dipotassium monohydrogen phosphate solution (7.58 mL). Incubate the test compound by adding 0.1 mL of the stock solution of test compound to an incubation mixture, placed in a shaking water bath at 37°C.
(§7) To determine the rate of disappearance of test compounds in this assay, remove triplicate aliquots (0.5 mL) from the incubation beaker at 1, 3, 5, 10, 15, 30, and 60 minutes. Freeze all aliquots in a hexane/dry-ice slurry to instantly deactivate the enzymes. Store at -70°C until assayed. The concentration of test compound in each aliquot is determined by HPLC after preparation and as compared to a standard concentration of test compound, such preparations and determinations are well known and appreciated in the art. The rate of disappearance can be determined from the slope of the initial linear phase of this assay by graphing the change in concentration of test compound vs. time.
(§8) Calibration standards for Compound A were prepared as follows: dissolve 10 mg of Compound A (free base) in methanol (10 mL) to give a 1 mg/mL stock solution. Use acetonitrile to dilute 1 mL of stock solution to 10 mL to give a 100 µg/mL spiking standard and serially dilute the 100µg/mL solution with acetonitrile to give spiking standards having concentrations of 50, 25, 10, 5, 2.5, and 1.0 µg/mL. Calibration standards having concentrations of 10,000; 5,000; 2,500; 1,000; 500; 250; and 100 ng/mL are prepared in duplicated by adding 20 µL of each spiking standards to 0.2 mL of control S9 supernatant. Blanks and samples each receive 20µL of acetonitrile. Calibration standards and aliquots from that assay of compound A were prepared and evaluated as follows: charge a purple sulfonic acid solid phase extraction cartridge (Varian Inc., Harbor City, Ca.) with methanol (1 mL) and an aqueous 0.5% monochloroacetic acid solution (1 mL). Dilute the 0.2 mL of calibration standard or aliquot from the incubation with aqueous 5% acetonitrile (0.5 mL) and add to the charged cartridge. Pull the sample through the cartridge using vacuum, rinse with aqueous 0.5% monochloroacetic acid solution (1 mL), aqueous 50% acetonitrile solution (50 mM potassium hydroxide) (1 mL). Elute into HPLC vial using 60% methanol, 38% water, 1% acetic acid, 1% triethylamine (0.4 mL). […]

[2] = target: T2, human jejunal NK2 receptor (Homo sapiens, UniProt P21452); experiment: Antagonism of iodinated tachykinin binding to NK2 receptor (125iodohistidyl-1-neurokinin A) in HSKR-1 cells; conditions: HSKR-1 cells (mouse 3T3 fibroblasts expressing the human jejunal NK2 receptor); mean of several experiments
T2 construct: expressed in transfected cells; host or cells: HSKR-1 cells (mouse 3T3 fibroblasts)
T2 sequence (P21452 1-398): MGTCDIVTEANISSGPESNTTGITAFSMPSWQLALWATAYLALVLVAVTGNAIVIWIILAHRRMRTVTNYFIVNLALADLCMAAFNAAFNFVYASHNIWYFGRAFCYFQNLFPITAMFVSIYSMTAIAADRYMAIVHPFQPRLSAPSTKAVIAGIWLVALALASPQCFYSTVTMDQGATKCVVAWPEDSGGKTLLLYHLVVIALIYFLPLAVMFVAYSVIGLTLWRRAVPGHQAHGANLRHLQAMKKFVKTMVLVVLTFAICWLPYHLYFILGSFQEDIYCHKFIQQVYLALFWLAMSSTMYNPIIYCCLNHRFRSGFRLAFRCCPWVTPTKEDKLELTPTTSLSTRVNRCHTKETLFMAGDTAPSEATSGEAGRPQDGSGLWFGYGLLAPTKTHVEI
Method: as §1, §2

[3] = Metabolic stability: disappearance of test compound in guinea pig liver S9 supernatant; type: in vitro ADME; conditions: initial concentration 10µM, 37°C
Method: as §3, §4, §5, §6, §7, §8

SMILES	IC50 (NK1 receptor)	Metabolic Stability in Human Liver S9, concentration ([1]; Time 1 min)	Metabolic Stability in Human Liver S9, concentration ([1]; Time 3 min)	Metabolic Stability in Human Liver S9, concentration ([1]; Time 5 min)	Metabolic Stability in Human Liver S9, concentration ([1]; Time 10 min)	Metabolic Stability in Human Liver S9, concentration ([1]; Time 15 min)	Metabolic Stability in Human Liver S9, concentration ([1]; Time 30 min)	Metabolic Stability in Human Liver S9, concentration ([1]; Time 60 min)	IC50 [2]	Metabolic Stability in Guinea Pig Liver S9, concentration ([3]; Time 1 min)	Metabolic Stability in Guinea Pig Liver S9, concentration ([3]; Time 3 min)	Metabolic Stability in Guinea Pig Liver S9, concentration ([3]; Time 5 min)	Metabolic Stability in Guinea Pig Liver S9, concentration ([3]; Time 10 min)	Metabolic Stability in Guinea Pig Liver S9, concentration ([3]; Time 15 min)	Metabolic Stability in Guinea Pig Liver S9, concentration ([3]; Time 30 min)	Metabolic Stability in Guinea Pig Liver S9, concentration ([3]; Time 60 min)
COc1cc(C(=O)N2CCC(CCN3CCC(C(N)=O)(c4ccccc4)CC3)(c3ccc(Cl)c(Cl)c3)C2)cc(OC)c1OC.Cl (single isomer, unassigned; (+)) [Compound C, (+)-1-(2-(3-(3,4-dichloro-phenyl)-1-(3,4,5-trimethoxy-benzoyl)-pyrrolidin-3-yl)-ethyl)-4-phenyl-piperidine-4-carboxylic acid amide hydrochloride, reference compound]	3.04 nM	6.2 µg/mL	5.6 µg/mL	5.9 µg/mL	5.2 µg/mL	4.5 µg/mL	3.2 µg/mL	2.5 µg/mL	8.17 nM	6.3 µg/mL	6.0 µg/mL	5.3 µg/mL	4.8 µg/mL	4.0 µg/mL	3.8 µg/mL	3.5 µg/mL
COc1ccc(-n2cnnn2)cc1C(=O)N1CC[C@](CCN2CCC(C(N)=O)(c3ccccc3)CC2)(c2ccc(Cl)c(Cl)c2)C1 [Compound A, (R)-1-(2-methoxy-5-(1H-tetrazol-1-yl)benzoyl)-3-(2-(4-phenyl-4-carboxamidopiperidin-1-yl)ethyl)-3-(3,4-dichlorophenyl)pyrrolidine hydrochloric acid salt]	2.79 nM	6.6 µg/mL	6.5 µg/mL	6.6 µg/mL	6.7 µg/mL	6.6 µg/mL	6.8 µg/mL	6.9 µg/mL	16.3 nM	6.1 µg/mL	6.6 µg/mL	6.3 µg/mL	6.1 µg/mL	6.1 µg/mL	6.3 µg/mL	6.9 µg/mL
COc1ccc(-n2cnnn2)cc1C(=O)N1CC[C@](CCN2CCC(C(N)=O)(c3cccnc3)CC2)(c2ccc(Cl)c(Cl)c2)C1 [Compound B, (R)-1-(2-methoxy-5-(1H-tetrazol-1-yl)benzoyl)-3-(2-(4-(pyrid-3-yl)-4-carboxamidopiperidin-1-yl)ethyl)-3-(3,4-dichlorophenyl)pyrrolidine hydrochloric acid salt]	3.15 nM	6.4 µg/mL	6.6 µg/mL	6.1 µg/mL	6.1 µg/mL	5.7 µg/mL	5.3 µg/mL	4.4 µg/mL	232 nM	6.2 µg/mL	6.4 µg/mL	6.4 µg/mL	6.3 µg/mL	6.3 µg/mL	6.3 µg/mL	6.2 µg/mL
